“Also recorded” adds a separate entry of the source. Values belong to the sequence of their own block, whether it stands above or below them.
Legend:
[1] = test system: peptide-loaded RMA-S HHD cells; assay: Chromium 51 release assay (CTL assay); format: cell-based, mice; details: for CTL response (51Cr-release): effector:target 75:1, 50:1, 25:1, mice immunized with recombinant MAGE-A9 and poly(I:C)
[2] = test system: spleen cells of HLA-A24 transgenic mice immunized with MAGE-A9 full length recombinant protein; assay: IFN-γ ELISPOT, MAGE-A9 immunogenic HLA-A24 peptides; format: cell-based; details: three experiments
Description: FIGS. 16A and 16B depict IFN-γ ELISPOT results of 1st experiment for the MAGE-A9 immunogenic HLA-A24 peptides. IFN-γ response induced against HLA-A24 candidate peptides of MAGE-A9 as detected by IFN-γ ELISPOT assay. Two group of 3 and 5 mice were immunized respectively with poly(I:C) alone (as control; bar on the left) and with MAGE-A9 full-length recombinant protein admixed with poly(I:C) (bar on the right). Mice were sacrificed 34 days after 1st immunization and spleen cells were tested in IFN-γ ELISPOT after stimulation with dendritic cells loaded with the individual candidate or control peptides (FIG. 16A) or after direct stimulation with the individual candidate or control peptides (FIG. 16B). DCE: Dendritic cell empty; NS: Non stimulated; A24-Ctrl; irrelevant control HLA-A24 peptide. Student T-test *p<0.05; ** p<0.005; *** p<0.0005; **** p<0.00005.
(§1) IFN-γ ELISPOTs was performed to measure antigen-specific T-cell activation upon stimulation with peptides containing the putative epitopes. […]
(§2) Groups of ten 6-12 weeks-old HLA-A1, HLA-A2/DR1, HLA-A24, HLA-All (as a surrogate for HLA-A3 allele) and HLA-B7 male/female mice were immunized three times s.c. and i.p., 14 days apart, with 30 μg of MAGE-A9 his-tag full-length recombinant protein admixed with 50 μg (s.c.) or 200 μg (i.p.) of Poly(I:C) in a final volume of 100 μl. On day 34, mice were sacrificed. Splenocytes were isolated from spleens and treated with ACK lysis buffer to lyse contaminating erythrocytes. Splenocytes were stimulated with the candidate peptides alone or with dendritic cells loaded with the candidate peptides. The immune response was measured using IFN-γ ELISPOT assays (BD). Then spots were counted using an ELISPOT counter (CTL Analyzer) and enumerated as number of spot-forming units (SFU) per well. Each experiment was repeated two or three times (except for the experiment with HLA-A11 (as a surrogate for HLA-A3 allele) mice which was done only once).
(§3) Student's t-tests were performed to compare two groups (non-stimulated versus stimulated with test peptide). […]

[3] = test system: spleen cells of HLA-B7 transgenic mice immunized with MAGE-A9 full length recombinant protein; assay: IFN-γ ELISPOT, MAGE-A9 immunogenic HLA-B7 peptides; format: cell-based; details: individual responses per mouse
Description: FIGS. 19A and 19B depict IFN-γ ELISPOT results of 1st experiment for the MAGE-A9 immunogenic HLA-B7 peptides. IFN-γ response induced by HLA-B7 candidate peptides of MAGE-A9 as detected by IFN-γ ELISPOT assay. Two group of 3 and 5 mice were immunized respectively with poly(I:C) alone (as control; bar on the left) and with MAGE-A9 full-length recombinant protein admixed with poly(I:C) (bar on the right). Mice were sacrificed 34 days after 1st immunization and spleen cells were tested in IFN-γ ELISPOT after stimulation with dendritic cells loaded with the individual candidate or control peptides (FIG. 19A) or after direct stimulation with the individual candidate or control peptides (FIG. 19B). DCE: Dendritic cell empty; NS: Non stimulated; B7-Ctrl; irrelevant control HLA-B7 peptide. Student T-test *p<0.05; ** p<0.005; *** p<0.0005; **** p<0.00005. […]
(§4) Groups of ten 6-12 weeks-old HLA-A1, HLA-A2/DR1, HLA-A24, HLA-All (as a surrogate for HLA-A3 allele) and HLA-B7 male/female mice were immunized three times s.c. and i.p., 14 days apart, with 30 μg of MAGE-A9 his-tag full-length recombinant protein admixed with 50 μg (s.c.) or 200 μg (i.p.) of Poly(I:C) in a final volume of 100 μl. […] The immune response was measured using IFN-γ ELISPOT assays (BD). Then spots were counted using an ELISPOT counter (CTL Analyzer) and enumerated as number of spot-forming units (SFU) per well. […]

[4] = test system: spleen cells of HLA-A11 transgenic mice immunized with MAGE-A9 full length recombinant protein; assay: IFN-γ ELISPOT, MAGE-A9 immunogenic HLA-A3/A11 peptides; format: cell-based
Source text: FIGS. 23A and 23B depict IFN-γ ELISPOT results of the experiment for the MAGE-A9 immunogenic HLA-A3/A11 peptides. IFN-γ response induced by HLA-A3 candidate peptides of MAGE-A9 as detected by IFN-γ ELISPOT assay. Two group of 3 and 10 HLA-A11 transgenic mice were immunized respectively with DPX-Empty alone (as control; bar on the left) and with MAGE-A9 full-length recombinant protein admixed with poly(I:C) (bar on the right). Mice were sacrificed 36 days after 1st immunization and spleen cells were tested in IFN-γ ELISPOT after stimulation with dendritic cells loaded with the individual candidate or control peptides (FIG. 23A) or after direct stimulation with the individual candidate or control peptides (FIG. 23B). DCE: Dendritic cell empty; NS: Non stimulated; A3-Ctrl; irrelevant control HLA-A3 peptide.
as §1, §2, §3

[5] = molecular target: MHC class 1 allele A*02:01 (Homo sapiens, UniProt P04439, D140Y/D185E/D98H/E176V/E277Q/G131W/G231S/I119V/I121R/I166T/I218V/L300P/L318F/N151K/N90K/P208A/P217A/Q86G/Q94H/R138H/R169H/T345S); assay: REVEAL binding of HLA-A2 binding peptides; details: for binding to MHC class 1 allele A*02:01 (in words): Higher REVEAL score
[6] = test system: spleen cells of HLA-A2/DR1 transgenic mice immunized with MAGE-A9 full length recombinant protein; assay: IFN-γ ELISPOT, MAGE-A9 immunogenic HLA-A2 peptides; format: cell-based; details: for IFN-γ response (ELISPOT): HLA-A2/DR1 mice, three experiments
Description: FIGS. 11A and 11B depict IFN-γ ELISPOT results of 1st experiment for the MAGE-A9 immunogenic HLA-A2 peptides. Induction of IFN-γ response induced against HLA-A2 peptides of MAGE-A9 as detected by IFN-γ ELISPOT assay. A group of 10 mice was immunized with MAGE-A9 full length recombinant protein admixed with poly(I:C). Mice were sacrificed 34 days after 1st immunization and spleen cells were tested in IFN-γ ELISPOT after stimulation with dendritic cells loaded with the individual candidate or control peptides (FIG. 11A) or after direct stimulation with the individual candidate or control peptides (FIG. 11B). DCE: Dendritic cell empty; NS: Non stimulated; INF, gp100 and EBV: irrelevant HLA-A2 control peptides. Student T-test *p<0.05; ** p<0.005; *** p<0.0005; **** p<0.00005.
as §1, §2
Student's t-tests were performed to compare two groups (non-stimulated versus stimulated with test peptide). To indicate significance, p-values are represented in the figures by * p<0.05, ** p<0.01, *** p<0.001, and **** p=0.0001. All data are presented as means with standard error of the mean (SEM).
The experiment was repeated three times for a total number of 30 mice (FIGS. 11, 12, and 13). The immune response for peptides 111, 24, 223 and 270 via Chromium 51 (^51Cr) release assays (CTL assays) is also presented in Example 6. […] These tests offer a very high sensitivity, which explains why the INF-Y response for these peptides appears to be weaker, although the peptides are responsive in other assays (see Examples 6).

HLA-A2 = molecular target: T1, HLA-A2 (Homo sapiens, UniProt P04439, D140Y/D185E/D98H/E176V/E277Q/G131W/G231S/I119V/I121R/I166T/I218V/L300P/N151K/N90K/P208A/P217A/Q86G/Q94H/R138H/R169H); assay: Flex-T in vitro HLA binding assay (HLA class I ELISA); details: Flex-T monomer peptide exchange, β2-microglobulin ELISA
T1 construct: purchased Biolegend, USA
Description: Internal in vitro assay that assesses the binding of each of the peptides to HLA-A2 as a part of the potency assay development was performed using the Flex-T in vitro binding assay.
Flex-T technology (Biolegend, USA) offers the opportunity to quantitatively measure the binding affinity of peptides to their respective MHC Class I receptors (In this case HLA-A2). Flex-T was made of MHC monomers loaded with a peptide that can be degraded using a UV light source. This allowed for a peptide exchange when the UV irradiation was done in the presence of the peptide of interest which is not UV-labile.
The binding of the peptide of interest to the Flex-T monomer was quantified using an HLA class I ELISA method based on the detection of β2-microglobulin subunit of HLA class I complexes, after capturing the complex through the conjugated biotin. To this end, biotinylated HLA class I monomer-peptide complex was first captured in streptavidin coated microtiter wells. Subsequently, lRP-conjugated anti-human 02-microglobulin was added to detect intact HLA class I complexes. Only intact HLA class I complexes were recognized.
The relative potency was then calculated compared to a reference lot using parallel line analysis as per USP <1034>.

[7] = test system: spleen cells of HLA-A1 transgenic mice immunized with MAGE-A9 full length recombinant protein; assay: IFN-γ ELISPOT, MAGE-A9 immunogenic HLA-A1 peptides; format: cell-based
Description: FIGS. 14A and 14B depict IFN-γ ELISPOT results of 1st experiment for the MAGE-A9 immunogenic HLA-A1 peptides. IFN-γ response induced by HLA-A1 candidate peptides of MAGE-A9 as detected by IFN-γ ELISPOT assay. Two groups of 3 and 5 mice were immunized respectively with poly(I:C) alone (as control; bar on the left) and with MAGE-A9 full-length recombinant protein admixed with poly(I:C) (bar on the right). Mice were sacrificed 34 days after 1st immunization and spleen cells were tested in IFN-γ ELISPOT after stimulation with dendritic cells loaded with the individual candidate or control peptides (FIG. 14A) or after direct stimulation with the individual candidate or control peptides (FIG. 14B). DCE: Dendritic cell empty; NS: Non stimulated; Ctrl HLA-A1; irrelevant control HLA-A1 peptide. Student T-test *p<0.05; ** p<0.005; *** p<0.0005; **** p<0.00005. […]
as §4

Sequence: GLMGAQEPT [MAGE-A9 24, MAGE-A9 peptide antigen]
CTL response (51Cr-release) [1]: elicited a response

Sequence: VYYTLWSQF [compound 71]
IFN-γ response (ELISPOT) [2]: interesting

Sequence: MPKAALLII [peptide 195]
IFN-γ response (ELISPOT) [3]: greatest activity; also recorded: gave an immune response

Sequence: SVMGVYVGK [peptide 225, MAGE-A9 peptide antigen]
IFN-γ response (ELISPOT) ([4]; HLA-A11 mice, peptide-loaded DC or peptides alone): very strong; also recorded: very immunogenic

binding to MHC class 1 allele A*02:01 (in words) [5]: high binding
Sequence: FLWGSKAHA [MAGE-A9 270, MAGE-A9 peptide antigen]
CTL response (51Cr-release) [1]: elicited a response

Sequence: FMFQEALKL [peptide 102, MAGE-A9 peptide antigen]
IFN-γ response (ELISPOT) [6]: highest; also recorded: consistently observed
IFN-γ response (ELISPOT), significance ([6]; splenocytes stimulated with peptide-loaded DCs): statistically significant in two out of three experiments

Sequence: FLLHKYRVK [peptide 118, MAGE-A9 peptide antigen]
IFN-γ response (ELISPOT) ([4]; only with peptide-loaded DC): good reactivity

Sequence: STFKNWPFL [SurA24, survivin peptide antigen HLA-A24]
binding to MHC class 1 allele A*02:01 (in words) [5]: high binding
Kinetic score ([5]; MHC class 1 allele A*02:01): 0.00
On-rate T1/2 ([5]; MHC class 1 allele A*02:01): 31.52 h
R-score ([5]; MHC class 1 allele A*02:01): 0.00
Off-rate T1/2 ([5]; MHC class 1 allele A*02:01, * = no significant, stable complex at end of measurement period): 7.2 min
REVEAL score ([5]; MHC class 1 allele A*02:01, Positive Control 100): 61.93

Sequence: IVLGVILTK [peptide 203, MAGE-A9 peptide antigen]
IFN-γ response (ELISPOT) ([4]; restimulated with peptide alone): weak but significant reactivity

binding affinity compared to M9-A2-270 [5]: lower binding affinity
binding to MHC class 1 allele A*02:01 (in words) [5]: high binding
HLA-A2 binding (HLA-A2): high affinity binding
Sequence: KVAELVHFL [MAGE-A9 111]
IFN-γ response (ELISPOT) [6]: consistently higher
IFN-γ response (ELISPOT) ([7]; first experiment, peptide-loaded DC (FIG. 14A), not observed in the 2nd experiment): moderate response
specific lysis compared to M9-A2-270 [1]: higher specific lysis
CTL response (51Cr-release) [1]: elicited a response

Sequence: ALLIIVLGV [compound 199, MAGE-A9 peptide antigen]
IFN-γ response (ELISPOT) [6]: highest

Sequence: NYKRYFPVI [peptide 141]
IFN-γ response (ELISPOT) [2]: interesting; also recorded: highest responder; also recorded: good immune responses; also recorded: stronger and more consistent results

Sequence: LMLGEFLKL [SurA2.M, survivin peptide antigen HLA-A2]
binding to MHC class 1 allele A*02:01 (in words) [5]: high binding
HLA-A2 binding (HLA-A2): high affinity binding

Sequence: EVDPAGHSY [peptide 167]
IFN-γ response (ELISPOT) ([7]; HLA-A1 mice, two experiments): very strong; also recorded: highly immunogenic

Sequence: SYILVTALG [compound 174]
IFN-γ response (ELISPOT) [2]: interesting; also recorded: good immune responses

Source: patent US20240390468A1, “SURVIVIN AND MAGE-A9 DUAL-TARGETED IMMUNOTHERAPY” (IMMUNOVACCINE TECHNOLOGIES INC., priority 2022, published 2024)
